Patent publication US4272528A, “Phosphonoacetyl aminoacids” (Abbott Laboratories, priority 1980, dated 1981)
Where two headings read alike, the source gives them in different places.

Molecular target: herpes DNA polymerase (Human herpesvirus 1, UniProt P04293)
Assay: herpes DNA polymerase activity assay
Type: biochemical
Settings: for % Inhibition at Drug Level 1.666 μg/ml / % Inhibition at Drug Level 16.6 μg/ml / % Inhibition at Drug Level 166 μg/ml: fixed dilution
Experimental: The above compounds were tested for herpes DNA polymerase activity in the manner shown in Example 9 of U.S. Pat. No. 4,138,432. The assay, using fixed dilutions of the above compounds, produced the following results:
When variable solution concentrations were used, the results were as follows: […]

[1] = variable solution concentrations, read-out: ID50 (the source's name) (converted)

herpes DNA polymerase, sequence (P04293 whole entry): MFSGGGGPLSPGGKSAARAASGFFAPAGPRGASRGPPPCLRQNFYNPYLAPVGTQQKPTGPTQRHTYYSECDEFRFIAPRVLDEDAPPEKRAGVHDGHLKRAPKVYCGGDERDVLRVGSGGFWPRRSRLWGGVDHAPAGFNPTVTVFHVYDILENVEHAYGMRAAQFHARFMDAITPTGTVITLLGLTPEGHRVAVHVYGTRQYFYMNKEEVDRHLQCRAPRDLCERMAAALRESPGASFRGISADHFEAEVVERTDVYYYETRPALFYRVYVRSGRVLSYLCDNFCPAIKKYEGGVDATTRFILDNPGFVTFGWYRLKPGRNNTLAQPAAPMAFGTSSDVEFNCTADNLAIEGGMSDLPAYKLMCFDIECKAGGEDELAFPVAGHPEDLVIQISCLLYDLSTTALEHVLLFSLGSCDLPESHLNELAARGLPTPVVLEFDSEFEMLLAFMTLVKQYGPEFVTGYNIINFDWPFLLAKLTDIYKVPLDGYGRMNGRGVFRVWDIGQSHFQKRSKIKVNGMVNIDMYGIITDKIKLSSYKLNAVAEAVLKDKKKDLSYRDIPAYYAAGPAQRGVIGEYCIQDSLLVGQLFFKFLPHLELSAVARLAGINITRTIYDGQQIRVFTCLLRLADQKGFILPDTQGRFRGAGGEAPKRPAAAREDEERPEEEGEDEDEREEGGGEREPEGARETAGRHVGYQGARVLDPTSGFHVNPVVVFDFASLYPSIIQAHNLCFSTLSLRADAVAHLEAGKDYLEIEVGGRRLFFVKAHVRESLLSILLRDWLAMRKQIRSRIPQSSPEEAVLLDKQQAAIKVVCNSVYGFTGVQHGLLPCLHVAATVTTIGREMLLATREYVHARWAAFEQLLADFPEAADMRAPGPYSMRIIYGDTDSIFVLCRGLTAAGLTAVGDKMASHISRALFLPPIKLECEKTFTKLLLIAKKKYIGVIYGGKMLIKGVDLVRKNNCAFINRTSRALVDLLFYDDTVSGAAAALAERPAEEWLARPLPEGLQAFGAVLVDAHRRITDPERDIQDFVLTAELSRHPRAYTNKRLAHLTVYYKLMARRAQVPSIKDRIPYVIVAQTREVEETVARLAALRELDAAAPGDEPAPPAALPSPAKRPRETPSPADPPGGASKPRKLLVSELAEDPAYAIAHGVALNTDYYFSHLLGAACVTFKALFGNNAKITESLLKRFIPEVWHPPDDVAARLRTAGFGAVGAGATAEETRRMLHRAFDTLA

| Structure (SMILES) | IC50 | % Inhibition at Drug Level 1.666 μg/ml | % Inhibition at Drug Level 16.6 μg/ml | % Inhibition at Drug Level 166 μg/ml | IC50 [1] |
| --- | --- | --- | --- | --- | --- |
| C[C@@H](NC(=O)CP(=O)(O)O)C(=O)O [Example 2 (D), PAA-D-Ala] | 31.3 µM | 19% | 68% | 87% | – |
| O=C(O)CP(=O)(O)O [PAA-Na, reference compound] | – | 82% | 98% | 99% | – |
| N=C(N)NCCCC(NC(=O)CP(=O)(O)O)C(=O)O (stereo not shown) [PAA-Arg, reference compound] | – | – | – | – | 203 µM |
| O=C(O)CNC(=O)CP(=O)(O)O [Example 1, PAA-Gly] | 28.9 µM | 33% | 56% | 72% | – |
| C[C@H](NC(=O)CP(=O)(O)O)C(=O)O [Example 2 (L), PAA-L-Ala] | – | – | – | 59% | – |
| O=C(O)CCNC(=O)CP(=O)(O)O [Example 3, PAA-β-Ala] | 50.2 µM | 15% | 59% | 88% | – |
| O=C(O)C[C@H](NC(=O)CP(=O)(O)O)C(=O)O [PAA-L-Asp, reference compound] | – | – | – | – | 141 µM |
| O=C(O)CC(NC(=O)CNC(=O)CP(=O)(O)O)C(=O)O (stereo not shown) [Example 4, PAA-Gly-Asp] | – | 39% | 77% | 93% | 10.6 µM |
